Reference: US7795437B2, “Ether derivatives” (Hoffmann-La Roche Inc., priority 2006, dated 2010)

What was measured:
[1] = biological target: T1, human D2 dopamine receptor (Homo sapiens, UniProt P14416); assay: Radioligand binding to cloned human D2 receptor ([3H]-spiperone); conditions: third value of D3/5HT2A/D2; membranes of transfected HEK-293 EBNA cells, 0.7 nM [3H]-spiperone, 1 h at RT
T1 construct: expressed in transfected cells; host or cells: HEK-293 EBNA cells (transient transfection; membrane preparation)
Protocol: (§1) The ability of compounds of the present invention to bind to the 5-HT2A, D3 and D2 receptors was determined using radioligand binding to cloned receptors selectively expressed in HEK-293 EBNA cells.
(§2) Membrane Preparation for Human D2, Human D3 and Human 5-HT2A Receptors
(§3) HEK-293 EBNA cells were transiently transfected with expression plasmids encoding for the human D2 or D3 dopamine- or for the human 5-HT2A serotonin receptor, respectively. The cells were harvested 48 hours post-transfection, washed three times with cold phosphate buffered saline (PBS) and stored at −80° C. prior to use. The pellet was suspended in cold 50 mM Tris-HCl buffer containing 10 mM EDTA (pH 7.4) and homogenized with a Polytron (Kinematica AG, Basel, Switzerland) for 20-30 seconds at 12.000 rpm. After centrifugation at 48.000×g for 30 minutes at 4° C., the pellet was resuspended in cold 10 mM Tris-HCl buffer containing 0.1 mM EDTA (pH 7.4), homogenized, and centrifuged as above. This pellet was further resuspended in a smaller volume of ice cold 10 mM Tris-HCl buffer containing 0.1 mM EDTA (pH 7.4) and homogenized with a Polytron for 20-30 sec at 12.000 rpm. The protein content of this homogenate was determined with the Bio-Rad (Bradford) Protein Assay (Biorad Laboratories GmbH, München, Germany) according to the instructions of the manufacturer using gamma globulin as the standard. This homogenate was stored at −80° C. in aliquots and thawed immediately prior to use.
(§4) Radioligand Binding Assay Conditions
(§5) Aliquots of membrane preparations were thawed at room temperature, resuspended in assay buffer (D2, D3: 50 mM Tris-HCl, 120 mM NaCl, 5 mM MgCl2, 1 mM EDTA, 5 mM KCl, 1.5 mM CaCl2, pH=7.4; 5-HT2A: 50 mM Tris-HCl, 10 mM MgCl2, 1 mM EGTA, pH=7.4), homogenized with a Polytron for 20-30 seconds at 12.000 rpm and adjusted to a final concentration of approximately 7.5 μg protein/well (D2, D3) and 15 μg protein/well (5-HT2A), respectively.
(§6) The binding affinity (Ki) of the compounds was determined using radioligand binding. Membranes were incubated in a total volume of 200 μl with a fixed concentration of radioligand (final concentration approximately 0.7 nM [^3H]-spiperone for D2, 0.5 nM [^3H]-spiperone for D3, and 1.1 nM [^3H]-ketanserin for 5-HT2A) and ten concentrations of test compound ranging between 10 μM-0.1 nM for 1 h at RT. At the end of the incubation, the reaction mixtures were filtered on to unifilter 96-well white microplates with bonded GF/C filters (Packard BioScience, Zudrich, Switzerland; preincubated for 1 h in 0.1% polyethylenimine (PEI) in assay buffer) with a Filtermate 196 harvester (Packard BioScience) and washed 3 times with cold assay buffer. The nonspecific binding was determined with equally composed reaction mixtures in the presence of 10 μM unlabelled spiperone. Per well 45 μl of Microscint 40 (Perkin Elmer, Schwerzenbach, Switzerland) was added, plates for sealed, shaken for 20 min and counted for 3 minutes on a Topcount Microplate Scintillation Counter (Can berra Packard SA, Zu-rich, Switzerland) with quenching correction.
(§7) The CPM value for each duplicate of a concentration of competing compound was averaged (y1), then the % specific binding was calculated according to the equation (((y1−non-specific)/(total binding-non-specific))×100). Graphs were plotted with the % specific binding using XLfit, a curve fitting program that iteratively plots the data using Levenburg Marquardt algorithm. The single site competition analysis equation used was y=A+((B−A)/(1+((x/C)^D))), where y is the % specific binding, A is the minimum y, B is the maximum y, C is the IC50, x is the log10 of the concentration of the competing compound and D is the slope of the curve (the Hill Coefficient). From these curves the IC50 (inhibition concentration at which 50% specific binding of the radioligand was displaced) and Hill coefficient were determined. […]

[2] = biological target: T2, human 5-HT2A serotonin receptor (Homo sapiens, UniProt P28223); assay: Radioligand binding to cloned human 5-HT2A receptor ([3H]-ketanserin); conditions: second value of D3/5HT2A/D2; membranes of transfected HEK-293 EBNA cells, 1.1 nM [3H]-ketanserin, 1 h at RT
T2 construct: expressed in transfected cells; host or cells: HEK-293 EBNA cells (transient transfection; membrane preparation)
Protocol: as §1, §2, §3, §4, §5, §6, §7

[3] = biological target: T3, human D3 dopamine receptor (Homo sapiens, UniProt P35462); assay: Radioligand binding to cloned human D3 receptor ([3H]-spiperone); conditions: first value of D3/5HT2A/D2; membranes of transfected HEK-293 EBNA cells, 0.5 nM [3H]-spiperone, 1 h at RT
T3 construct: expressed in transfected cells; host or cells: HEK-293 EBNA cells (transient transfection; membrane preparation)
Protocol: as §1, §2, §3, §4, §5, §6, §7

T2 sequence (P28223 whole entry): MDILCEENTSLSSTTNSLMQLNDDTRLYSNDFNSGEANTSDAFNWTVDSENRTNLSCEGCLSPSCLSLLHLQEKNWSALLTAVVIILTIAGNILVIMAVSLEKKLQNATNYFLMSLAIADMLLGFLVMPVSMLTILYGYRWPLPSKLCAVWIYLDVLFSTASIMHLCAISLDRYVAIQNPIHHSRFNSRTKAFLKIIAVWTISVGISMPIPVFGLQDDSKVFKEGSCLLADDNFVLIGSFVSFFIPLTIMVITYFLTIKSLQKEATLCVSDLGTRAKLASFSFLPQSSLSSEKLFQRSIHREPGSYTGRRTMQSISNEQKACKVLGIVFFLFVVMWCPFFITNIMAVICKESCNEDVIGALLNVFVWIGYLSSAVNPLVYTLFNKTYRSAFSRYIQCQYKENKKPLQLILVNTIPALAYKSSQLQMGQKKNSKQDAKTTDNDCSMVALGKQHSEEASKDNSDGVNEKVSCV
T1 sequence (P14416 whole entry): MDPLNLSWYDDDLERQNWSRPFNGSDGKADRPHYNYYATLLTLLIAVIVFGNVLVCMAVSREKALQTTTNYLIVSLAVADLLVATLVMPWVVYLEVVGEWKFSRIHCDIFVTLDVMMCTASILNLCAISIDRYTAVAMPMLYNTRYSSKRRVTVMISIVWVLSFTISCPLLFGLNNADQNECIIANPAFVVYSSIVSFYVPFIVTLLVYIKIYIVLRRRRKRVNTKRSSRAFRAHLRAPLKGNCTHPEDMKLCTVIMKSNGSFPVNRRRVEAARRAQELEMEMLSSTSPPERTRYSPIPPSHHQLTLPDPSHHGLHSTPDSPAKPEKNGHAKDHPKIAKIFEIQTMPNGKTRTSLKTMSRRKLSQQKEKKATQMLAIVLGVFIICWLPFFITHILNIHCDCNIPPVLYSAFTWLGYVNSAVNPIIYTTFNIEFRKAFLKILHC
T3 sequence (P35462 whole entry): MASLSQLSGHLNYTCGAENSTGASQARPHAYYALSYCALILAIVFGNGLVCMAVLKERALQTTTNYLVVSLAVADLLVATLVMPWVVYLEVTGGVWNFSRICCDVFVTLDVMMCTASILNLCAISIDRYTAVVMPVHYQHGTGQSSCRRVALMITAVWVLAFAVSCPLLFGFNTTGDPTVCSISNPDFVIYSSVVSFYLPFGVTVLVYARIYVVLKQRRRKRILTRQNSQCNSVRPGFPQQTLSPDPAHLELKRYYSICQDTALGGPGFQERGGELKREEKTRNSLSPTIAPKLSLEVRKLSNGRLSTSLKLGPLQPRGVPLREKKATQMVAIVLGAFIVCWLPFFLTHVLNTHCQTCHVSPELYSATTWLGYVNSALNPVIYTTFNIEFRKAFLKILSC

Work on `COCCC(=O)N[C@H]1CC[C@H](CCN2CCC(Oc3ccc(F)cc3)CC2)CC1` [Example 3, N-(trans-4-{2-[4-(4-Fluoro-phenoxy)-piperidin-1-yl]-ethyl}-cyclohexyl)-3-methoxy-propionamide] yielded a Ki [1] of 1470 nM, a Ki [2] of 22 nM and a Ki [3] of 48 nM.
With `CC(=O)N[C@H]1CC[C@H](CCN2CCC(Oc3ccc(F)cc3)CC2)CC1` [Example 8, Trans N-(4-{2-[4-(4-Fluoro-phenoxy)-piperidin-1-yl]-ethyl}-cyclohexyl)-acetamide] the Ki [1] was 843 nM, the Ki [2] was 31 nM and the Ki [3] was 50 nM.
With `O=C(Nc1ccc(Cl)cc1)N[C@H]1CC[C@H](CCN2CCC(Oc3ccc(F)cc3)CC2)CC1` [Example 9, Trans-1-(4-Chloro-phenyl)-3-(4-{2-[4-(4-fluoro-phenoxy)-piperidin-1-yl]-ethyl}-cyclohexyl)-urea] the Ki [1] was 574 nM, the Ki [2] was 13 nM and the Ki [3] was 14 nM.
Molecule `Cc1ccc(NC(=O)N[C@H]2CC[C@H](CCN3CCC(Oc4ccc(F)cc4)CC3)CC2)cc1` [Example 10, Trans-1-(4-{2-[4-(4-Fluoro-phenoxy)-piperidin-1-yl]-ethyl}-cyclohexyl)-3-p-tolyl-urea] has a Ki [1] of 592 nM, a Ki [2] of 22 nM and a Ki [3] of 16 nM.
With `O=C(N[C@H]1CC[C@H](CCN2CCC(Oc3ccc(F)cc3Cl)CC2)CC1)c1ccnc2ccccc12` [Example 11, Quinoline-4-carboxylic acid trans(4-{2[4-(2-chloro-4-fluoro-phenoxy)-piperidin-1-yl]-ethyl}-cyclohexyl)-amide] the Ki [1] was 321 nM, the Ki [2] was 2 nM and the Ki [3] was 17 nM.
For `COCCC(=O)N[C@H]1CC[C@H](CCN2CCC(Oc3ccc(F)cc3Cl)CC2)CC1` [Example 13, N-trans (4-{2-[4-(2-Chloro-4-fluoro-phenoxy)-piperidin-1-yl]-ethyl}-cyclohexyl)-3-methoxy-propionamide], the Ki [1] was 790 nM, the Ki [2] was 3 nM and the Ki [3] was 14 nM.
Molecule `O=C(N[C@H]1CC[C@H](CCN2CCC(Oc3ccc(F)cc3Cl)CC2)CC1)C1CCOCC1` [Example 15, Tetrahydro-pyran-4-carboxylic acid trans (4-{2-[4-(2-chloro-4-fluoro-phenoxy)-piperidin-1-yl]-ethyl}-cyclohexyl)-amide] has a Ki [1] of 556 nM, a Ki [2] of 2 nM and a Ki [3] of 17 nM.
For `Cc1nc(-c2cccc(C(=O)N[C@H]3CC[C@H](CCN4CCC(Oc5ccc(F)cc5Cl)CC4)CC3)c2)no1` [Example 16, N-trans (4-{2-[4-(2-Chloro-4-fluoro-phenoxy)-piperidin-1-yl]-ethyl}-cyclohexyl)-3-(5-methyl-[1,2,4]oxadiazol-3-yl)-benzamide], the Ki [1] was 553 nM, the Ki [2] was 5 nM and the Ki [3] was 11 nM.
Work on `CCC(=O)N[C@H]1CC[C@H](CCN2CCC(Oc3ccc(F)cc3Cl)CC2)CC1` [Example 18, N-trans (4-{2-[4-(2-Chloro-4-fluoro-phenoxy)-piperidin-1-yl]-ethyl}-cyclohexyl)-propionamide] yielded a Ki [1] of 604 nM, a Ki [2] of 2 nM and a Ki [3] of 5 nM.
Molecule `CC(=O)N[C@H]1CC[C@H](CCN2CCC(Oc3ccc(F)cc3Cl)CC2)CC1` [Example 19, N-trans(4-{2-[4-(2-Chloro-4-fluoro-phenoxy)-piperidin-1-yl]-ethyl}-cyclohexyl)-acetamide] has a Ki [1] of 683 nM, a Ki [2] of 3 nM and a Ki [3] of 12 nM.
For `Cc1ccc(NC(=O)N[C@H]2CC[C@H](CCN3CCC(Oc4ccc(F)cc4Cl)CC3)CC2)cc1` [Example 21, 1-trans(4-{2-[4-(2-Chloro-4-fluoro-phenoxy)-piperidin-1-yl]-ethyl}-cyclohexyl)-3-p-tolyl-urea], the Ki [1] was 697 nM, the Ki [2] was 2 nM and the Ki [3] was 3 nM.
`O=C(N[C@H]1CC[C@H](CCN2CCC(Oc3ccc(F)cc3F)CC2)CC1)c1ccnc2ccccc12` [Example 24, Quinoline-4-carboxylic acid trans(4-{2-[4-(2,4-difluoro-phenoxy)-piperidin-1-yl]-ethyl}-cyclohexyl)-amide] gave a Ki [1] of 453 nM, a Ki [2] of 3 nM and a Ki [3] of 8 nM.
With `O=C(N[C@H]1CC[C@H](CCN2CCC(Oc3cc(F)c(F)cc3F)CC2)CC1)C1CCOCC1` [Example 51, Tetrahydro-pyran-4-carboxylic acid trans(4-{2-[4-(2,4,5-trifluoro-phenoxy)-piperidin-1-yl]-ethyl}-cyclohexyl)-amide] the Ki [1] was 638 nM, the Ki [2] was 36 nM and the Ki [3] was 29 nM.
Work on `CC(=O)N[C@H]1CC[C@H](CCN2CCC(Oc3ccc(Cl)cc3C#N)CC2)CC1` [Example 62, N-trans-(4-{2-[4-(4-Chloro-2-cyano-Phenoxy)-piperidin-1-yl]-ethyl}-cyclohexyl)-acetamide] yielded a Ki [1] of 3320 nM, a Ki [2] of 43 nM and a Ki [3] of 100 nM.
Work on `O=C(N[C@H]1CC[C@H](CCN2CCC(Oc3cccc(Cl)c3Cl)CC2)CC1)c1ccnc2ccccc12` [Example 72, Quinoline-4-carboxylic acid trans(4-{2-[4-(2,3-dichloro-phenoxy)-piperidin-1-yl]-ethyl}-cyclohexyl)-amide] yielded a Ki [1] of 319 nM, a Ki [2] of 9 nM and a Ki [3] of 5 nM.
`O=C(N[C@H]1CC[C@H](CCN2CCC(Oc3ccncc3)CC2)CC1)c1ccnc2ccccc12` [Example 74, Quinoline-4-carboxylic acid (trans-4-{2-[4-(Pyridin-4-yloxy)-piperidin-1-yl]-ethyl}-cyclohexyl)-amide] showed a Ki [1] of 3000 nM, a Ki [2] of 60 nM and a Ki [3] of 208 nM.
